Blank lines part the entries; values can stand above or below the compound they belong to.
Experiments:
TMEM175 = biological target: T1, TMEM175 (Homo sapiens, UniProt Q9BSA9); experiment: SSME K+ flux compound assay on purified lysosomes overexpressing TMEM175 (SURFE2R 96SE); format: biochemical
T1 sequence (Q9BSA9 1-504): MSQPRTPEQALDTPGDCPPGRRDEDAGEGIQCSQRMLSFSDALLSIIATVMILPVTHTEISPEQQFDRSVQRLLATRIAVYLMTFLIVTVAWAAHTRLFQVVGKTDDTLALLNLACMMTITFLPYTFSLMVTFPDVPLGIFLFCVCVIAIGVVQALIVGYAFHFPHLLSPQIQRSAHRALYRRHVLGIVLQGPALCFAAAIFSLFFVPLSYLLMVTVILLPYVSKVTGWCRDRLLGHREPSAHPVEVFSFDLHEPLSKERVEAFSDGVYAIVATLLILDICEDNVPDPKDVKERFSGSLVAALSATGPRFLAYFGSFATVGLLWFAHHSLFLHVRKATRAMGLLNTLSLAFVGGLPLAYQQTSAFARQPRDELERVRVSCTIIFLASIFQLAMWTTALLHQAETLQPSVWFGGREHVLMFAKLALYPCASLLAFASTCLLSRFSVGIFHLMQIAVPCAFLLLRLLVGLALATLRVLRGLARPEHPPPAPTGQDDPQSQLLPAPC

[1] = test system: control lysosomes expressing endogenous TMEM175; experiment: SSME off-target compound effects on control lysosomes (SURFE2R 96SE); format: biochemical, human
Text: ; (A) Dose-response curves for SC-79; (B) Dose-response curves for cluster 1 compounds showing similar effects with all three technologies; (C) Dose-response curves for cluster 2 compounds showing no activity in LPC, but higher activity in APC; (D) Dose-response curves for cluster 3 compounds showing high activity in LPC, but lower activity in APC; For all assay technologies, datapoints were normalized to the current recorded before compound addition and averaged across at least N = 3 individual experiments. For clarity reasons, the SEM is not shown; the average relative SEM after averaging datapoints recorded with two highest compound concentrations is 35.6% for LPC data and 2.9% for SSME data. The APC data were acquired using a voltage application protocol distinct from the one depicted in Figure 7B, as described in the Methods section. Datasets were not corrected for artifacts (as observed in SSME) or off-target compound effects. For SSME data, we indicate the difference in the peak current when applying the four highest concentrations of a compound to control lysosomes (to assess off-target effects) compared to the current recorded with TMEM175 lysosomes prior to compound addition. […] Considerable off-target compound effects are observed when the given percentage approaches the percentage of enhancement recorded with the TMEM175 sample at the given compound concentration. […] . When an EC50 value was determined from the fit, it is highlighted by a vertical dotted line. […]
We also investigated the effect of the eight test compounds on the artifact currents recorded with control lysosomes using the SURFE^2R 96SE.
Artifact currents are typically in the range of −1 nA, while TMEM175 sample currents are +4 nA (Figure 1K). […] This corresponds to 3% to 30% of the current recorded with the TMEM175 sample in the absence of the compound. […]
a. For each single well, we performed an in-well normalization: the artifact corrected peak current obtained using a given condition is devided by the artifact corrected reference peak current recorded within the same well. b. […]

Structure (SMILES): CCCCC1(C2CCCC2)Cc2cc(OCCCC(=O)O)c(Cl)c(Cl)c2C1=O (centres unmarked) [DCPIB]
Effect of K+ concentration (driving force) on apparent EC50 (TMEM175; 2, 5, 10, 50 mM K+, 3, 10, 30 µM DCPIB): not affected | Off-target effect of DCPIB on control lysosomes (SURFE2R 96SE) ([1]; 20 µM and below): did not have an effect | Off-target effect of DCPIB on control lysosomes (SURFE2R 96SE) ([1]; 60 µM DCPIB, Figure S5): off-target inhibition

EC50 (TMEM175; 50 mM K+ jump, not corrected for artifacts or off-target effects): 2.9 ± 2.3 µM
Structure (SMILES): CCOC(=O)C1=C(N)Oc2ccc(Cl)cc2C1C(C#N)C(=O)OCC (centres unmarked) [SC-79]

Structure (SMILES): [Cl-].[Cl-].[Zn+2] [Zn, ZnCl2]
Off-target effect of zinc on control lysosomes (SURFE2R 96SE) ([1]; in-plate control, Figure S5): small off-target inhibition

— publication PMC10454728, “A Comparative Study on the Lysosomal Cation Channel TMEM175 Using Automated Whole-Cell Patch-Clamp, Lysosomal Patch-Clamp, and Solid Supported Membrane-Based Electrophysiology: Functional Characterization and High-Throughput Screening Assay Development” (International Journal of Molecular Sciences, 2023)
